According to patent publication US12227551B2, “Membrane bound IL12 compositions and methods for tunable regulation” (Obsidian Therapeutics, Inc., priority 2018, dated 2025):

System: primary human T cells
Assay: Surface CAR and surface IL12 in CAR+ gate after 20 hours vardenafil, CD19-CAR-P2A-mbIL12-PDE5 constructs (Example 8; Table 22)
Format: cell-based
Conditions: 5 μM Vardenafil, CAR+ cell gate, regulated CD19-CAR-P2A-mbIL12-PDE5 constructs
Method: On day 0, primary human T cells were stimulated with Dynabeads (T-expander CD3/CD28) at a 3:1 bead: cell ratio in media containing 10% fetal bovine serum (FBS). The next day, lentivirus produced with constructs OT-001407 (CAR only control), OT-001895, OT-001894, OT-001891, OT-002044 were added in the presence of reduced serum (5% FBS). On day 2, the cells were diluted 1:2 with fresh 10% FBS media. […] After overnight incubation, transduction efficiency was analyzed by flow cytometry using CD19-Fc to detect surface CAR expression. Surface IL12 expression within the CAR+ cell gate was detected with an anti-IL12p70 antibody (BD, Franklin Lakes, N.J.) and is shown in Table 22.

SMILES: CCCc1nc(C)c2c(=O)[nH]c(-c3cc(S(=O)(=O)N4CCN(CC)CC4)ccc3OCC)nn12 [vardenafil, Vardenafil]
- increases in expression of surface IL12 compared to vehicle control: 17-24 fold
